Tested on: SNB19 cells
Experiment: Wound healing assay
Assay type: cell-based, human
Settings: 48 hrs after scratching; scratch 2 days after start of treatment
Experimental: The wound healing assay was carried out according to Zhang et al. (2018) J Mol Neurosci 64:262-272. At the designated time, five randomly selected fields at the lesion border were acquired under an inverted microscope (Olympus, IX71). The mean number of cells at the control group was defined as 100% and the mean number of other groups was normalised by means of the control group, respectively.

Substance: verteporfin
- wound healing (cell migration): healed more slowly

Source: US20250302999A1, “TRANSGENE CASSETTES AND EPIGENETIC SILENCERS FOR THE TREATMENT OF DISORDERS” (Ospedale San Raffaele S.r.I., priority 2022, published 2025)
